Read-outs that look alike come from different tables or passages of the source.
Columns and labels:
[1] = tested on: Mycosphaerella graminicola; Anamorph: Septoria tritici; Bayer Code SEPTTR (standard laboratory isolate, SI SEPTTR); assay: Type A (high volume) assay, leaf blotch of wheat, standard laboratory SEPTTR isolate (SI SEPTTR); type: in vivo, Mycosphaerella graminicola on wheat plants (variety Yuma); details: Zymoseptoria tritici, standard laboratory isolate, high volume, 50 ppm, wheat (Yuma)
Procedure: (§1) Example A: Evaluation of Fungicidal Activity: Leaf Blotch of Wheat (Mycosphaerella graminicola; Anamorph: Septoria tritici; Bayer Code SEPTTR)
(§2) For Type A assays, technical grades of the experimental fungicides in Table 4 below were dissolved in acetone, and then mixed with nine volumes of water containing 110 ppm Triton X-100. The fungicide solutions were applied onto wheat seedlings using an automated booth sprayer. For Type B assays, emulsifiable concentrate (EC) formulations of technical grades of the experimental fungicides in Table 4 below were prepared at 10% (w/v), and then mixed with 150 volumes of 0.1% Trycol 5941. These solutions were applied onto wheat seedlings using an automated track sprayer at 200 L/ha. All sprayed plants were allowed to air dry prior to further handling.
(§3) Wheat plants (variety Yuma) were grown from seed in a greenhouse in 50% mineral soil/50% soil-less Metro mix until the first leaf was fully emerged, with 7-10 seedlings per pot. Prior to or after application of experimental fungicides, plants were inoculated either with spores of a standard laboratory SEPTTR isolate (SI SEPTTR) or with spores from a SEPTTR field isolate collected from Wellsbourne, England in 2012 (FI SEPTTR). After inoculation the plants were kept for 3 days at 20° C. in 100% relative humidity (one day in a dark dew chamber followed by two days in a lighted dew chamber). Plants were then transferred to a 20° C. greenhouse for disease development. When disease symptoms were fully expressed on untreated plants, infection levels on treated plants were assessed on a scale of 0 to 100 percent disease severity. Percent disease control was calculated using the ratio of disease severity on treated plants relative to untreated plants.

[2] = Type B (low volume, EC formulation, track sprayer 200 L/ha) assay, leaf blotch of wheat, SEPTTR field isolate (FI SEPTTR); type: in vivo, Mycosphaerella graminicola on wheat plants (variety Yuma); details: Zymoseptoria tritici, 72 h, field isolate, low volume EC, 100 g/ha, wheat (Yuma)
Procedure: as §1, §2, §3

[3] = 24 h, 1 Day Protectant, read-out: Disease Control, SI SEPTTR Type A Assay (50 ppm) 1 DP
[4] = 72 h, 3 Day Curative, read-out: Disease Control, SI SEPTTR Type A Assay (50 ppm) 3 DC
[5] = 3 Day Curative, read-out: Disease Control, FI SEPTTR Type B Assay (100 g/ha) 3 DC
[6] = 3 Day Protectant, read-out: Disease Control, FI SEPTTR Type B Assay (100 g/ha) 3 DP

SMILES	pest or weed control at 50 ppm [1, 3] [%]	pest or weed control at 50 ppm [1, 4] [%]	pest or weed control at 100 g/ha [2, 5] [%]	pest or weed control at 100 g/ha [2, 6] [%]
OC(c1ccc(-c2ccc(OC(F)(F)F)cc2)cn1)(c1cncs1)c1ccc(F)cc1F (stereo not shown) [Compound 94]	60 to 79	–	–	–
CC(C)C(O)(Cn1cnnn1)c1ccc(Oc2ccc(C#N)cc2)cn1 (stereo not shown) [Compound 24]	< 40	< 40	–	–
CC(C)(C)C(O)(c1cncnc1)c1ccc(-c2cccnc2)cn1 (stereo not shown) [Compound 126]	60 to 79	–	–	–
C=CCCC(O)(c1cncnc1)c1ccc(Oc2ccc(Cl)cc2)cn1 (stereo not shown) [Compound 21, 1-(5-(4-chlorophenoxy)pyridine-2-yl)-1-(pyrimidin-5-yl)pent-4-en-1-ol]	80 to 100	80 to 100	–	–
CCC(O)(c1cncnc1)c1ccc(Oc2cccc(Cl)n2)cn1 (stereo not shown) [Compound 70]	40 to 59	–	–	–
OC(Cc1ccc(F)cc1F)(c1cncnc1)c1ccc(-c2ccc(OC(F)(F)F)cc2)cn1 (stereo not shown) [Compound 138]	80 to 100	–	–	–
OC(Cc1ccc(Cl)cc1Cl)(c1cncnc1)c1ccc(-c2ccc(OC(F)(F)F)cc2)cn1 (stereo not shown) [Compound 142]	80 to 100	–	–	–
OC(CCc1ccc(Cl)cc1F)(Cn1cnnn1)c1ccc(Oc2ccc(Cl)cn2)cn1 (stereo not shown) [Compound 4]	60 to 79	< 40	–	–
COc1ccc(-c2ccc(C(O)(c3cncnc3OC)C(C)(C)C)nc2)cn1 (stereo not shown) [Compound 171]	80 to 100	–	–	–
COc1ncncc1C(O)(c1ccc(-c2ccc(C(F)(F)F)nc2)cn1)C(C)(C)C (stereo not shown) [Compound 172]	80 to 100	–	–	–
OC(C#CC1CC1)(c1cncnc1)c1ccc(Oc2ccc(C(F)(F)F)cc2)cn1 (stereo not shown) [Compound 47]	40 to 59	80 to 100	–	–
CC(C)(C)C(O)(c1cncnc1)c1ccc(-c2ccc(C#N)nc2)cn1 (stereo not shown) [Compound 108]	60 to 79	–	–	–
CC(C)C(O)(c1cncnc1)c1ccc(Oc2cccc(Cl)n2)cn1 (stereo not shown) [Compound 69]	80 to 100	–	–	–
CC(C)(C)C(O)(c1cncnc1)c1ccc(-c2ccc(CC#N)cc2)cn1 (stereo not shown) [Compound 153]	80 to 100	–	–	–
CCC(O)(c1cncnc1)c1ccc(Oc2ccc(Cl)cn2)cn1 (stereo not shown) [Compound 54]	< 40	40 to 59	–	–
COc1ncncc1C(O)(c1ccc(-c2ccc(C(C)(C)C#N)cc2C)cn1)C(C)(C)C (stereo not shown) [Compound 129, 2-(4-(6-(1-hydroxy-1-(4-methoxypyrimidin-5-yl)-2,2-dimethylpropyl)pyridin-3-yl)-3-methylphenyl)-2-methylpropanenitrile]	60 to 79	–	–	–
CC(C)C(O)(c1cccnc1)c1ccc(Oc2ccc(Cl)cn2)cn1 (stereo not shown) [Compound 77]	80 to 100	–	–	–
CC(C)(C)C(O)(c1cccnc1)c1ccc(-c2ccc(OC(F)(F)F)cc2F)cn1 (stereo not shown) [Compound 147]	80 to 100	–	–	–
CC(C)(C)C(O)(c1cncnc1)c1ccc(-c2cnc(C(F)(F)F)cc2C(F)(F)F)cn1 (stereo not shown) [Compound 128]	80 to 100	–	–	–
OC(CCc1ccc(F)cc1F)(Cn1cnnn1)c1ccc(Oc2ccc(C(F)(F)F)cn2)cn1 (stereo not shown) [Compound 5]	< 40	40 to 59	–	–
C=CCCC(O)(c1cncnc1)c1ccc(Oc2ccc(OC(F)(F)F)cc2)cn1 (stereo not shown) [Compound 22]	80 to 100	80 to 100	–	–
CC(C)(C)C(O)(Cn1cnnn1)c1ccc(-c2ccc(OC(F)(F)F)cc2)cn1 (stereo not shown) [Compound 26, 3,3-dimethyl-1-(1H-tetrazol-1-yl)-2-[5-[4-(trifluoro-methoxy)phenyl]pyridine-2-yl]butan-2-ol]	< 40	40 to 59	–	–
N#Cc1ccc(Oc2ccc(C(O)(c3cncnc3)C3CC3)nc2)cc1 (stereo not shown) [Compound 18]	< 40	< 40	–	–
OC(c1cncnc1)(c1ccc(Oc2cccc(Cl)n2)cn1)C1CC1 (stereo not shown) [Compound 72]	< 40	–	–	–
CC(C)(C)C#CC(O)(c1cncnc1)c1ccc(Oc2ccc(Cl)cc2)cn1 (stereo not shown) [Compound 29, 1-(5-(4-chlorophenoxy)pyridin-2-yl)-4,4-dimethyl-1-(pyrimidin-5-yl)pent-2-yn-1-ol]	80 to 100	80 to 100	–	–
CC(C)C(O)(Cn1cnnn1)c1ccc(-c2ccc(OC(F)(F)F)cc2)cn1 (stereo not shown) [Compound 61]	40 to 59	60 to 79	–	–

SMILES	pest or weed control at 50 ppm [1, 3] [%]	pest or weed control at 50 ppm [1, 4] [%]	pest or weed control at 100 g/ha [2, 5] [%]	pest or weed control at 100 g/ha [2, 6] [%]
CCC(O)(c1cncnc1)c1ccc(Oc2ccc(Cl)nc2)cn1 (stereo not shown) [Compound 36]	< 40	60 to 79	–	–
CC(C)C(O)(Cn1cnnn1)c1ccc(-c2ccc(OCC(F)(F)F)nc2)cn1 (stereo not shown) [Compound 62]	40 to 59	40 to 59	–	–
CC(C)C(O)(c1cncnc1)c1ccc(Oc2ccc(C#N)cc2)cn1 (stereo not shown) [Compound 16]	80 to 100	80 to 100	–	–
CC(C)(C)C(O)(c1cncnc1)c1ccc(-c2ccsc2)cn1 (stereo not shown) [Compound 110]	80 to 100	–	–	–
N#Cc1ccc(Oc2ccc(C(O)(Cn3cnnn3)C(F)(F)c3ccc(F)cc3F)nc2)cc1 (stereo not shown) [Compound 1, 4-((6-(1-(2,4-difluorophenyl)-1,1-difluoro-2-hydroxy-3-(1H-tetrazol-1-yl)propan-2-yl)pyridin-3-yl)oxy)benzonitrile]	< 40	40 to 59	–	–
CCC(O)(c1cncnc1)c1ccc(Oc2ccc(OC(F)(F)F)cc2)cn1 (stereo not shown) [Compound 32]	80 to 100	80 to 100	–	–
OC(CCc1ccc(Cl)cc1)(Cn1cnnn1)c1ccc(Oc2ccc(C(F)(F)F)cn2)cn1 (stereo not shown) [Compound 15]	60 to 79	40 to 59	–	–
OC(Cc1ccc(Cl)cc1)(c1cncnc1)c1ccc(-c2ccc(OC(F)(F)F)cc2)cn1 (stereo not shown) [Compound 140]	80 to 100	–	–	–
CCC(C)(C)C(O)(c1cccnc1)c1ccc(-c2ccc(OC(F)(F)F)cc2)cn1 (stereo not shown) [Compound 154]	80 to 100	–	–	–
COc1ncncc1C(O)(c1ccc(-c2ccc(C(C)(C)C)cc2)cn1)C(C)(C)C (stereo not shown) [Compound 168]	60 to 79	–	–	–
N#Cc1ccc(Oc2ccc(C(O)(CC3CC3)Cn3cnnn3)nc2)cc1 (stereo not shown) [Compound 23]	< 40	60 to 79	–	–
Cc1cncc(C(O)(c2ccc(-c3ccc(OC(F)(F)F)cc3)cn2)C(C)(C)C)c1 (stereo not shown) [Compound 144]	80 to 100	–	–	–
N#Cc1ccc(Oc2ccc(C(O)(Cn3cnnn3)C3CC3)nc2)cc1 (stereo not shown) [Compound 19, 4-((6-(1-cyclopropyl-1-hydroxy-2-(1H-tetrazol-1-yl)ethyl)pyridin-3-yl)oxy)benzonitrile]	< 40	40 to 59	–	–
Cc1ccc(Oc2ccc(C(O)(C#CC(C)(C)C)c3cncnc3)nc2)nc1 (stereo not shown) [Compound 50]	< 40	60 to 79	–	–
CC(C)(C)C(O)(c1cncnc1)c1ccc(-c2cnc3ccccc3c2)cn1 (stereo not shown) [Compound 127]	80 to 100	–	–	–
CCOc1ccc(-c2ccc(C(O)(c3cncnc3)C(C)(C)C)nc2)cc1 (stereo not shown) [Compound 111]	60 to 79	–	–	–
C=Cc1ccc(-c2ccc(C(O)(c3cncnc3)C(C)(C)C)nc2)cc1 (stereo not shown) [Compound 109]	60 to 79	–	–	–
CC(C)(C)C(O)(c1cncnc1)c1ccc(-c2ccc3c(c2)CCCO3)cn1 (stereo not shown) [Compound 137]	80 to 100	–	–	–
COc1ncncc1C(O)(c1ccc(-c2ccc(C#N)cc2)cn1)C(C)(C)C (stereo not shown) [Compound 170]	80 to 100	–	–	–
OC(c1cccnc1)(c1ccc(Oc2ccc(Cl)cn2)cn1)C1CC1 (stereo not shown) [Compound 79]	80 to 100	–	–	–
OC(c1cncnc1)(c1ccc(-c2ccc(Cl)cc2)cn1)C1CC1 (stereo not shown) [Compound 66]	80 to 100	–	–	–
CC(C)C(O)(c1cncnc1)c1ccc(Oc2ccc(Cl)nc2)cn1 (stereo not shown) [Compound 10]	80 to 100	80 to 100	–	–
CC(C)(C)C(O)(Cc1cncnc1)c1ccc(-c2ccc(OC(F)F)cc2)cn1 (stereo not shown) [Compound 68]	80 to 100	–	–	–
C#CCOC(C)(c1cncnc1)c1ccc(-c2ccc(OC(F)(F)F)cc2F)cn1 (stereo not shown) [Compound 237]	–	–	< 40	40 to 59
C#CCOC(c1cncnc1)(c1ccc(-c2ccc(OC(F)(F)F)cc2F)cn1)C1CC1 (stereo not shown) [Compound 250]	–	–	< 40	80 to 100
COC(c1cncnc1)(c1ccc(-c2ccc(C(C)(C)C#N)cc2)cn1)C(C)(C)C (stereo not shown) [Compound 214]	–	–	< 40	80 to 100
